Experimental data as given in patent US11666539B2, “Synthetic lipid-like materials for brain delivery” (Trustees of Tufts College, priority 2020, dated 2023).

Tested on: flox-stop-flox tdTomato construct
Experiment: (-27)GFP-Cre protein delivery, tdTomato expression in Ai14 mouse brain
Assay type: in vivo
Conditions: (-27)GFP-Cre/LNP weight ratio 1/4; four i.v. injections of 50 μg protein; brain slices, fluorescence imaging
Text: GFP fused Cre recombinase was chosen as a model protein for the study, using the Ail4 model mouse line (FIG. 4A). The Ail4 mouse line contains a flox-stop-flox tdTomato construct. The successful intracellular delivery of Cre protein into the cells of Ail4 mouse leads to the gene recombination and turns on the tdTomato expression which can be directly visualized as red fluorescence signal without additional staining. Here, (−27)GFP-Cre protein was used. NT1-O14B LNPs doped with PBA-Q76-O16B was chosen, as these nanoparticles could successfully deliver (−27)GFP-Cre. The weight ratio of NT1-O14B and PBA-Q76-O16B was fixed at 3:7, based on the results observed from the AmB and ASO delivery. Lipid formulations were prepared using the approaches described for the formulation for ASO delivery. Briefly, the (−27)GFP-Cre protein was mixed with LNPs at a weight ratio of 1/4 and incubated the solution for 15 min at room temperature before intravenous injection. Mice were injected four times with a dose of 50 μg protein per injection. Five days after the last injection, the mice were sacrificed and brain tissues were collected, fixed, and dehydrated. Then the tissues were cryo-sectioned into […] slices and counter-stained with DAPI for fluorescence imaging.

CCCCCCCCCCCCSSCCOC(=O)CC[N+](CCC(=O)OCCSSCCCCCCCCCCCC)(CCN1CCCC1)Cc1ccc(B(O)O)cc1 [PBA-Q76-O16B]
tdTomato expression in the brain: no tdTomato expression
